Like-named read-outs stand apart in the source and are kept apart here.
Target: BRD2 (Homo sapiens, UniProt P25440)
Test: Western blot of BRD2 levels after cellular dosing
Conditions: for remaining activity at 2.19382 µM: Log SJ46420 (uM) 2.19382; for remaining activity at 2.79588 µM: Log SJ46420 (uM) 2.79588; for remaining activity at 3.09691 µM: Log SJ46420 (uM) 3.09691; for remaining activity at 3.39794 µM: Log SJ46420 (uM) 3.39794; for remaining activity at 3.69897 µM: Log SJ46420 (uM) 3.69897; for remaining activity at 4 µM: Log SJ46420 (uM) 4
[1] = 22Rv1, read-out: BRD2 (DMSO = 100), 22Rv1 cells, Rep1, Rep2
[2] = PC-3, read-out: BRD2 (DMSO = 100), PC3 cells, Rep1, Rep2

Chain of BRD2 (P25440 whole entry): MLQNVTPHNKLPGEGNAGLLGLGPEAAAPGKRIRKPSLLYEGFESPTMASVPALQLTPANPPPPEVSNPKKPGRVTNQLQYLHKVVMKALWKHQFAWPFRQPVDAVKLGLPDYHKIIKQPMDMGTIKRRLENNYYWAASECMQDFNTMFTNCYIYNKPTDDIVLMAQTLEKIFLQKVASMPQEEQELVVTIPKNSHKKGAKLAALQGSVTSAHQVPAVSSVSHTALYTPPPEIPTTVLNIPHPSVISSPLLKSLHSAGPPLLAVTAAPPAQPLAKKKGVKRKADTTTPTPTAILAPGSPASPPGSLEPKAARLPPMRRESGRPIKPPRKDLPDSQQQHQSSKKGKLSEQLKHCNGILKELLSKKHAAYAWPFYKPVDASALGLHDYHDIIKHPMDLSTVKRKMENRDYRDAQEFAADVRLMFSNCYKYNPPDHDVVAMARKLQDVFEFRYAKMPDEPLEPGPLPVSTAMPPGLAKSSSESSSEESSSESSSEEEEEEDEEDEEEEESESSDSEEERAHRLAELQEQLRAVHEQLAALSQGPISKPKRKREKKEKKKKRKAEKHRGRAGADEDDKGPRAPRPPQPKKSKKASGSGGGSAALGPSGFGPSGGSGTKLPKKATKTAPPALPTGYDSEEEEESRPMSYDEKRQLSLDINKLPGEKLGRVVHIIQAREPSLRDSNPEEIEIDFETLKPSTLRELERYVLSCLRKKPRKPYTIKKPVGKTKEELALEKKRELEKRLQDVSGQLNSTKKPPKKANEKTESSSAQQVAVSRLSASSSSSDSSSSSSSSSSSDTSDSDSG

Question: Which results are given for COC(=O)CNC(=O)Cc1csc(-c2ccc3cccc(OCCN4CCN(C(=O)C[C@@H]5N=C(c6ccc(Cl)cc6)c6c(sc(C)c6C)-n6c(C)nnc65)CC4)c3c2)n1 [SJ46420]?
Answer: remaining activity at 0.16 µM (22Rv1, 24 h, read-out: BRD2 level relative to DMSO (100%), 22Rv1, 0.16µM, 24 h, Fig S6f): 99 ± 7.4%; remaining activity at 0.31 µM (22Rv1, 24 h, read-out: BRD2 level relative to DMSO (100%), 22Rv1, 0.31µM, 24 h, Fig S6f): 92 ± 16%; remaining activity at 0.63 µM (22Rv1, 24 h, read-out: BRD2 level relative to DMSO (100%), 22Rv1, 0.63µM, 24 h, Fig S6f): 93 ± 8.7%; remaining activity at 1.3 µM (22Rv1, 24 h, read-out: BRD2 level relative to DMSO (100%), 22Rv1, 1.3µM, 24 h, Fig S6f): 88 ± 1.3%; remaining activity at 2.5 µM (22Rv1, 24 h, read-out: BRD2 level relative to DMSO (100%), 22Rv1, 2.5µM, 24 h, Fig S6f): 83 ± 5.5%; remaining activity at 5 µM (22Rv1, 24 h, read-out: BRD2 level relative to DMSO (100%), 22Rv1, 5µM, 24 h, Fig S6f): 87 ± 7.4%; remaining activity at 10 µM (22Rv1, 24 h, read-out: BRD2 level relative to DMSO (100%), 22Rv1, 10µM, 24 h, Fig S6f): 92 ± 5.6%; remaining activity at 2.19382 µM [1]: 94.2%; remaining activity at 2.79588 µM [1]: 98.7%; remaining activity at 3.09691 µM [1]: 88.1%; remaining activity at 3.39794 µM [1]: 87.2%; remaining activity at 3.69897 µM [1]: 92.7%; remaining activity at 4 µM [1]: 96.3%; Dmax (22Rv1, read-out: BRD2 Dmax, 22Rv1, 24 h dose): 0%; remaining activity at 0.156 µM (22Rv1, read-out: BRD2 level, Western blot quantification (DMSO = 100), Fig S6f, 22RV1 KO/rescue Dose Response, 0.156 uM): 94.2%; remaining activity at 0.625 µM (22Rv1, read-out: BRD2 level, Western blot quantification (DMSO = 100), Fig S6f, 22RV1 KO/rescue Dose Response, 0.625 uM): 98.7%; remaining activity at 1.25 µM (22Rv1, read-out: BRD2 level, Western blot quantification (DMSO = 100), Fig S6f, 22RV1 KO/rescue Dose Response, 1.25 uM): 88.1%; remaining activity at 2.5 µM (22Rv1, read-out: BRD2 level, Western blot quantification (DMSO = 100), Fig S6f, 22RV1 KO/rescue Dose Response, 2.5 uM): 87.2%; remaining activity at 5 µM (22Rv1, read-out: BRD2 level, Western blot quantification (DMSO = 100), Fig S6f, 22RV1 KO/rescue Dose Response, 5 uM): 92.7%; remaining activity at 10 µM (22Rv1, read-out: BRD2 level, Western blot quantification (DMSO = 100), Fig S6f, 22RV1 KO/rescue Dose Response, 10uM): 96.3%; remaining activity at 0.16 µM (24 h, read-out: BRD2 level relative to DMSO (100%), PC3, 0.16µM, 24 h, Fig S6e): 90 ± 11%; remaining activity at 0.31 µM (24 h, read-out: BRD2 level relative to DMSO (100%), PC3, 0.31µM, 24 h, Fig S6e): 98 ± 2.9%; remaining activity at 0.63 µM (24 h, read-out: BRD2 level relative to DMSO (100%), PC3, 0.63µM, 24 h, Fig S6e): 83 ± 3.4%; remaining activity at 1.3 µM (24 h, read-out: BRD2 level relative to DMSO (100%), PC3, 1.3µM, 24 h, Fig S6e): 89 ± 5.6%; remaining activity at 2.5 µM (24 h, read-out: BRD2 level relative to DMSO (100%), PC3, 2.5µM, 24 h, Fig S6e): 92 ± 9.1%; remaining activity at 5 µM (24 h, read-out: BRD2 level relative to DMSO (100%), PC3, 5µM, 24 h, Fig S6e): 91 ± 7.6%; remaining activity at 10 µM (24 h, read-out: BRD2 level relative to DMSO (100%), PC3, 10µM, 24 h, Fig S6e): 88 ± 9.1%; remaining activity at 0.2 µM (AU565, 8 h, read-out: BRD2 level relative to DMSO (100%), AU565, 0.2µM, 8 h, Fig S6c): 93 ± 3.1%; remaining activity at 1 µM (AU565, 8 h, read-out: BRD2 level relative to DMSO (100%), AU565, 1µM, 8 h, Fig S6c): 96 ± 6.2%; remaining activity at 5 µM (AU565, 8 h, read-out: BRD2 level relative to DMSO (100%), AU565, 5µM, 8 h, Fig S6c): 90 ± 5.1%; remaining activity at 0.2 µM (AU565, read-out: BRD2 level, Western blot quantification (DMSO = 100), Fig S6c, AU565 Cells, 0.2 uM): 91.6%; remaining activity at 1 µM (AU565, read-out: BRD2 level, Western blot quantification (DMSO = 100), Fig S6c, AU565 Cells, 1 uM): 101%; remaining activity at 5 µM (AU565, read-out: BRD2 level, Western blot quantification (DMSO = 100), Fig S6c, AU565 Cells, 5 uM): 87%; remaining activity at 2.5 µM (HEK-293T, 24 h, read-out: BRD2 level relative to DMSO (100%), 293T, 2.5µM, 24 h, Fig S6a): 89 ± 9.5%; remaining activity at 5 µM (HEK-293T, 24 h, read-out: BRD2 level relative to DMSO (100%), 293T, 5µM, 24 h, Fig S6a): 92 ± 2.5%; remaining activity at 2.5 µM (HEK-293T, read-out: BRD2 level, Western blot quantification (DMSO = 100), Fig S6a, 293T cells, 2.5 uM): 82%; remaining activity at 5 µM (HEK-293T, read-out: BRD2 level, Western blot quantification (DMSO = 100), Fig S6a, 293T cells, 5 uM): 91.4%; remaining activity at 2.5 µM (MDA-MB-468, 24 h, read-out: BRD2 level relative to DMSO (100%), MDA-MB-468, 2.5µM, 24 h, Fig S6b): 79 ± 8.9%; remaining activity at 5 µM (MDA-MB-468, 24 h, read-out: BRD2 level relative to DMSO (100%), MDA-MB-468, 5µM, 24 h, Fig S6b): 89 ± 3.9%; remaining activity at 10 µM (MDA-MB-468, 24 h, read-out: BRD2 level relative to DMSO (100%), MDA-MB-468, 10µM, 24 h, Fig S6b): 91 ± 3.1%; remaining activity at 2 µM (MDA-MB-468, read-out: BRD2 level, Western blot quantification (DMSO = 100), Fig S6b, MDA-MB468 Cells, 2 uM): 73.4%; remaining activity at 5 µM (MDA-MB-468, read-out: BRD2 level, Western blot quantification (DMSO = 100), Fig S6b, MDA-MB468 Cells, 5 uM): 86.5%; remaining activity at 10 µM (MDA-MB-468, read-out: BRD2 level, Western blot quantification (DMSO = 100), Fig S6b, MDA-MB468 Cells, 10 uM): 89.6%; remaining activity at 1.89279 µM (PC-3, read-out: BRD2 (DMSO = 100), PC3 cells, Log SJ46420 (uM) 1.89279, Rep1, Rep2): 89%; remaining activity at 2.19382 µM [2]: 83.3%; remaining activity at 2.49485 µM (PC-3, read-out: BRD2 (DMSO = 100), PC3 cells, Log SJ46420 (uM) 2.49485, Rep1, Rep2): 100%; remaining activity at 2.79588 µM [2]: 81.2%; remaining activity at 3.09691 µM [2]: 85.7%; remaining activity at 3.39794 µM [2]: 86.6%; remaining activity at 3.69897 µM [2]: 86.5%; remaining activity at 4 µM [2]: 81.6%; remaining activity at 1 µM (SK-BR-3, 2 h, read-out: BRD2 level relative to DMSO (100%), SKBR3, 1µM, 2hr, Fig S6g): 71 ± 3.9%; remaining activity at 5 µM (SK-BR-3, 2 h, read-out: BRD2 level relative to DMSO (100%), SKBR3, 5µM, 2hr, Fig S6g): 69 ± 10%; remaining activity at 1 µM (SK-BR-3, 2 h, read-out: BRD2 level, Western blot quantification (DMSO = 100), Fig S6g, SKBR3 Time course, 1 uM, 2hr): 67.4%; remaining activity at 5 µM (SK-BR-3, 2 h, read-out: BRD2 level, Western blot quantification (DMSO = 100), Fig S6g, SKBR3 Time course, 5 uM, 2hr): 61.5%; remaining activity at 1 µM (SK-BR-3, 4 h, read-out: BRD2 level relative to DMSO (100%), SKBR3, 1µM, 4hr, Fig S6g): 82 ± 4%; remaining activity at 5 µM (SK-BR-3, 4 h, read-out: BRD2 level relative to DMSO (100%), SKBR3, 5µM, 4hr, Fig S6g): 83 ± 6.1%; remaining activity at 5 µM (SK-BR-3, 4 h, read-out: BRD2 level relative to DMSO (100%), SKBR3, 5µM, 4hr, Fig S6j): 85 ± 7.3%

Source: paper PMC11470957, “Principles of paralog-specific targeted protein degradation engaging the C-degron E3 KLHDC2” (Nature Communications, 2024)
